These results are taken from ChEMBL document CHEMBL1139158, “Prenyloxyphenylpropanoids as novel lead compounds for the selective inhibition of geranylgeranyl transferase I” (Bioorg Med Chem Lett, 2007).

The structures appear in SMILES notation.

The species entered for experiment [1] is Homo sapiens. Description: Inhibition of GGTase 1 at 100 uM.
For experiment [2], the system named is Protein farnesyltransferase (Homo sapiens). Description: Inhibition of FTase at 100 uM.
A short description of experiment [3]: Inhibition of GGTase 1. More on the design: species or system Homo sapiens.

As for `CCOC(=O)/C=C/c1ccc(OC/C=C(\C)CCC=C(C)C)c(OC)c1`, the inhibition in experiment [1] was found to be 3%; in experiment [2] it was 5.5%.
For `CC(C)=CCC/C(C)=C/CC/C(C)=C/COc1ccc(/C=C/C(=O)O)cc1`, the inhibition in experiment [1] amounted to 93.5%. In experiment [3], this compound returned an IC50 of 28 µM.
Regarding `COc1cc(C(=O)O)ccc1OCC=C(C)C`, the inhibition in experiment [1] came out at 0%; in experiment [2], 2.4%.
The corresponding values for `COc1c(OC/C=C(\C)CCC=C(C)C)ccc2ccc(=O)oc12` are 34.2% and 15.5%.
As for `CC(C)=CCC/C(C)=C/COc1ccc(C(=O)O)cc1`, the inhibition in experiment [1] was 0%.
Take `COc1cc(/C=C/C(=O)O)ccc1OC/C=C(\C)CC/C=C(\C)CCC=C(C)C`: the inhibition was 83.9% in experiment [1] and 11% in experiment [2]. Moreover, in experiment [3], the IC50 was found to be 66 µM.
Consider `COc1cc(C(=O)O)ccc1OC/C=C(\C)CCC=C(C)C`, for which the inhibition in experiment [1] and in experiment [2] was 0% each time.
Take `COc1cc(/C=C/C(=O)O)ccc1OCC=C(C)C`: the figures for the inhibition in experiment [1] and in experiment [2] were 31% and 9.3%, respectively.

A word on the inhibition: it is the percentage by which the read-out fell short of the control. For orientation: IC50 means the midpoint of a concentration-inhibition curve.
